Reference: patent US20120231042A1, “Pharmaceutical Formulation For Producing Rapidly Disintegrating Tablets” (BASF SE, priority 2011, published 2012)

Assay: Film formation test
Type: physicochemical
Conditions: assessed visually; for Clear film / Notes (film-forming classification): 15% by weight solution in water, dried at 45° C. for 4 hours; for Structure formed after drying (film-forming property): 15% solution dried 4 hours at 45° C., statement in description
Description: In various embodiments, to determine the film-forming property, 30.0 g of a 15% strength by weight solution of the sugar or sugar alcohol in water are first prepared at 23° C. This solution is poured out onto glass plates with an indentation (dimension: 20 cm×6.5 cm, indentation 0.3 cm) and dried for 4 hours at 45° C. and then assessed visually. Measurement can take place in ambient air. The ambient air here has a relative humidity of about 40% at 23° C. Drying can take place for example, on the heating plate of a film-drawing instrument. A suitable film-drawing instrument is for example a commercial instrument such as the COATMASTER 509 MC.
Products which are present after the drying operation as a clear film or covering are referred to as “film-forming” If crystals are visible and the mass appears powdery, the substances are classified as “non-film-forming”
To determine the film-forming property, firstly, at 23° C., 30.0 g of a 15% strength by weight solution of the sugar or sugar alcohol in water were prepared. This solution was poured onto glass plates with an indentation (dimension: 20 cm×6.5 cm, indentation 0.3 cm) and dried at 45° C. for 4 hours and then assessed visually. […] Drying was carried out on a heating plate of the film-drawing instrument COATMASTER 509 MC (Erichsen).

Row | Compound | Clear film | Notes (film-forming classification) | Structure formed after drying (film-forming property)
1 | OC[C@@H](O)[C@@H](O)[C@H](O)[C@H](O)CO [Mannitol] | No | Crystals; non-film-forming | crystals or a powdery structure
2 | OC[C@@H](O)[C@@H](O[C@@H]1O[C@H](CO)[C@H](O)[C@H](O)[C@H]1O)[C@H](O)[C@@H](O)CO [Lactitol] | Yes | Film-forming | clear film/covering
3 | OC[C@H]1O[C@H](O[C@H]2O[C@H](CO)[C@@H](O)[C@H](O)[C@H]2O)[C@H](O)[C@@H](O)[C@@H]1O [trehalose] | – | – | clear film/covering
4 | Palatinit | Yes | Film-forming | clear film/covering
5 | OC[C@@H](O)[C@@H](O)[C@H](O)[C@@H](O)CO [Sorbitol] | Yes | Film-forming | clear film/covering
6 | OC[C@@H](O)[C@H](O)[C@@H](O)CO [Xylitol] | No | Crystals; non-film-forming | crystals or a powdery structure
7 | OC[C@H]1O[C@@](CO)(O[C@H]2O[C@H](CO)[C@@H](O)[C@H](O)[C@H]2O)[C@@H](O)[C@@H]1O [sucrose] | – | – | clear film/covering
8 | OC[C@@H](O)[C@@H](O[C@H]1O[C@H](CO)[C@@H](O)[C@H](O)[C@H]1O)[C@H](O)[C@@H](O)CO [Maltitol] | Yes | Film-forming | clear film/covering
9 | OC[C@H]1O[C@@H](O[C@H]2[C@H](O)[C@@H](O)C(O)O[C@@H]2CO)[C@H](O)[C@@H](O)[C@H]1O (stereo partly drawn) [lactose] | – | – | clear film/covering
10 | OC[C@@H](O)[C@@H](O)CO [Erythritol] | No | Crystals; non-film-forming | crystals or a powdery structure
